“And” between values parts separate entries of the source, which are not always exact repeats. Equal values may be shown once. “Also recorded” adds a separate entry of the source. Read-outs that look alike come from different tables or passages of the source.
Columns and labels:
TKU015 nattokinase [1] = assay: Influence of organic solvents on activity of TKU015 nattokinase; type: biochemical, Pseudomonas sp. TKU015; settings: in the presence of organic solvent; for Relative activity(%) TKU015 nattokinase: 100% represents 20 FU/mL
Description: Protease activity of the supernatant obtained from culture medium of chitinase (cultured in a liquid shaking culture medium (pH 8) including 0.5% by weight of SSP, 0.1% by weight of K2HPO4 and 0.05% by weight of MgSO4.7H2O for 3 days at 30° C.) is respectively tested using casein and N-succinyl-Ala-Ala-Pro-Phe-pNa as substrate.
(§1) With respect to thermal stability, TKU015 nattokinase is mixed with different solvents and then respectively placed for ten days at 25° C. and 4° C.

TKU015 nattokinase [2] = assay: Influence of organic solvents on TKU015 nattokinase activity at different temperature (ten days); type: biochemical, Pseudomonas sp. TKU015; settings: mixed with solvent, 100% represents 15 FU/mL
Description: as §1

TKU015 nattokinase [3] = type: biochemical, Pseudomonas sp. TKU015; settings: for Effect on TKU015 nattokinase activity: metal ion or inhibitor added
chitosanase = type: biochemical, Pseudomonas sp. TKU015
Description: (§2) In order to produce chitinase and chitosanase, generally, TKU015 is cultured in a liquid shaking culture medium (pH 8) including 0.5% by weight of SSP, 0.1% by weight of K2HPO4 and 0.05% by weight of MgSO4.7H2O for 3 days at 30° C. The obtained fermented supernatant is purified with ammonia sulfate precipitation, DEAE-Sepharose chromatography, Phenyl-Sepharose chromatography, and Sephacryl S-100 chromatography in sequence, and a chitinase and a chitosanase is obtained.
(§3) Pseudomonas sp. TKU015 is cultured in a liquid medium (100 mL/250 mL), which employ shrimp shell powder as carbon/nitrogen source, for 2-3 days at 30° C., and chitinase, chitosanase and nattokinase activity are tested in the medium.

nattokinase = settings: ion added; cited from earlier work
[4] = molecular target: Pseudomonas aeruginosa PseA protease (Pseudomonas aeruginosa, UniProt P14756); settings: cited from earlier work; for Effect of solvent on PseA protease activity: in the presence of solvent
Sequence of Pseudomonas aeruginosa PseA protease (P14756 198-498): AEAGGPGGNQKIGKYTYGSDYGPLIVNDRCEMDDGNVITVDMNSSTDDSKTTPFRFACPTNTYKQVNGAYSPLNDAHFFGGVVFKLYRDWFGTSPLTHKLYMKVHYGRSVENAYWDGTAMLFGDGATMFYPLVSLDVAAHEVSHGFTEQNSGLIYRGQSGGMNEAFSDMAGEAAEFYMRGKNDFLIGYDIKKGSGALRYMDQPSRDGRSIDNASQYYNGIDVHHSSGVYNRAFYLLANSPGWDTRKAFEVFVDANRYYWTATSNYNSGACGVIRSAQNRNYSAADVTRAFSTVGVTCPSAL

TKU015 nattokinase [5] = assay: Influence of surfactants on TKU015 nattokinase activity; type: biochemical, Pseudomonas sp. TKU015; settings: for Relative activity (%) Nattokinase: 100% represents 18 FU/mL
chitinase = assay: Influence of metal ions and organic solvents on TKU015 chitinase activity; type: biochemical, Pseudomonas sp. TKU015
Description: as §2, §3

PST-01 protease = PST-01 protease (Pseudomonas aeruginosa, UniProt P14756); settings: in the presence of solvent; cited from earlier work
Sequence of PST-01 protease (P14756 198-498): as above

san-ai protease = settings: in the presence of solvent; cited from earlier work
[6] = concentration 5 mM, 100% represents 19 FU/mL
[7] = concentration 10 mM, 100% represents 19 FU/mL
[8] = after placed for 10 days at 25° C.
[9] = after placed for 10 days, temperature not given
[10] = after placed for 10 days at 4° C.

## CCO [ethanol]
TKU015 nattokinase [1]
  Relative activity(%) TKU015 nattokinase: 65%
TKU015 nattokinase [2]; placed ten days at 4 ° C.
  Relative activity(%) TKU015 nattokinase: 114%
TKU015 nattokinase [2]; placed ten days at 25 ° C.
  Relative activity(%) TKU015 nattokinase: 88%

## O=C(O)CN(CCN(CC(=O)O)CC(=O)O)CC(=O)O [EDTA]
TKU015 nattokinase [3]
  Relative activity (%) Nattokinase: 117%

## O=S(=O)(F)Cc1ccccc1 [PMSF, phenylmethanesulfonyl fluoride]
TKU015 nattokinase [3]; [6]
  Relative activity (%) Nattokinase: 45%
TKU015 nattokinase [3]; [7]
  Relative activity (%) Nattokinase: 0%
TKU015 nattokinase [3]
  Effect on TKU015 nattokinase activity: completely inhibited
chitosanase
  Effect of metal ions and PMSF on chitosanase activity: inhibited

## CCOC(C)=O [ethyl acetate]
TKU015 nattokinase [1]
  Relative activity(%) TKU015 nattokinase: 70%
TKU015 nattokinase [2]; placed ten days at 4 ° C.
  Relative activity(%) TKU015 nattokinase: 118%
TKU015 nattokinase [2]; placed ten days at 25 ° C.
  Relative activity(%) TKU015 nattokinase: 92%

## [Cu+2] [Cu^2+]
nattokinase
  Effect of metal ion on nattokinase activity: increased activity
TKU015 nattokinase [3]; [6]
  Relative activity (%) Nattokinase: 95%
TKU015 nattokinase [3]
  Effect on TKU015 nattokinase activity: does not
chitosanase
  Effect of metal ions and PMSF on chitosanase activity: inhibited

## [Zn+2] [Zn^2+]
TKU015 nattokinase [3]; [6]
  Relative activity (%) Nattokinase: 94%

## CO [methanol]
TKU015 nattokinase [1]
  Effect of organic solvent on TKU015 nattokinase activity: do not affect
  Relative activity(%) TKU015 nattokinase: 96%
TKU015 nattokinase [2]; placed ten days at 4 ° C.
  Relative activity(%) TKU015 nattokinase: 116%
TKU015 nattokinase [2]; placed ten days at 25 ° C.
  Relative activity(%) TKU015 nattokinase: 90%

## [Ca+2] [Ca^2+]
nattokinase
  Effect of metal ion on nattokinase activity: increased activity
TKU015 nattokinase [3]; [6]
  Relative activity (%) Nattokinase: 108%
TKU015 nattokinase [3]
  Effect on TKU015 nattokinase activity: does not

## [Al+3] [Al^3+]
TKU015 nattokinase [3]; [6]
  Relative activity (%) Nattokinase: 101%

## CCCCCCCCCCCCOS(=O)(=O)[O-].[Na+] [SDS]
[4]; concentration 0.1%
  Remaining activity of PseA protease: 61%
TKU015 nattokinase [5]; concentration 0.5, 1, or 2 mM (one value in text)
  TKU015 nattokinase remaining activity: 50%
TKU015 nattokinase [5]; surfactant 0.5 mM
  Relative activity (%) Nattokinase: 66%
TKU015 nattokinase [5]; surfactant 1 mM
  Relative activity (%) Nattokinase: 56%
TKU015 nattokinase [5]; surfactant 2 mM
  Relative activity (%) Nattokinase: 56%

## xylene
TKU015 nattokinase [1]
  Effect of organic solvent on TKU015 nattokinase activity: do not affect
  Relative activity(%) TKU015 nattokinase: 96%
TKU015 nattokinase [2]; placed ten days at 4 ° C.
  Relative activity(%) TKU015 nattokinase: 126%
TKU015 nattokinase [2]; placed ten days at 25 ° C.
  Relative activity(%) TKU015 nattokinase: 96%
chitosanase; [8]
  Organic solvent resistance of chitosanase: don't affect activity
chitinase; [8]
  Organic solvent resistance of chitinase: don't affect activity

## CC#N [acetonitrile]
TKU015 nattokinase [1]
  Relative activity(%) TKU015 nattokinase: 88%
TKU015 nattokinase [2]; placed ten days at 4 ° C.
  Relative activity(%) TKU015 nattokinase: 90%
TKU015 nattokinase [2]; placed ten days at 25 ° C.
  Relative activity(%) TKU015 nattokinase: 80%
chitosanase
  Effect of organic solvent on chitosanase activity: can affect activity
chitinase; [9]
  Organic solvent resistance of chitinase: can affect activity

## Tween 40
TKU015 nattokinase [5]; surfactant 0.5 % (v/v)
  Relative activity (%) Nattokinase: 94%
TKU015 nattokinase [5]; surfactant 1 % (v/v)
  Relative activity (%) Nattokinase: 70%
TKU015 nattokinase [5]; surfactant 2 % (v/v)
  Relative activity (%) Nattokinase: 82%

## [Mg+2] [Mg^2+]
nattokinase
  Effect of metal ion on nattokinase activity: increased activity
TKU015 nattokinase [3]; [6]
  Relative activity (%) Nattokinase: 104%
TKU015 nattokinase [3]
  Effect on TKU015 nattokinase activity: does not

## CCCCCC [hexane]
TKU015 nattokinase [1]
  Relative activity(%) TKU015 nattokinase: 66%

## [Ba+2] [Ba^2+]
TKU015 nattokinase [3]; [6]
  Relative activity (%) Nattokinase: 109%

## CC(C)=O [acetone]
TKU015 nattokinase [1]
  Relative activity(%) TKU015 nattokinase: 150%
TKU015 nattokinase [2]; placed ten days at 4 ° C.
  Relative activity(%) TKU015 nattokinase: 128%
TKU015 nattokinase [2]; placed ten days at 25 ° C.
  Relative activity(%) TKU015 nattokinase: 108%
chitosanase; [10]
  Organic solvent resistance of chitosanase: can affect activity
chitinase; [9]
  Organic solvent resistance of chitinase: can affect activity
PST-01 protease
  Activity of PST-01 protease: 200%
  Effect of solvent on PST-01 protease activity: doesn't change

## butanol
TKU015 nattokinase [1]
  Relative activity(%) TKU015 nattokinase: 70%
TKU015 nattokinase [2]; placed ten days at 4 ° C.
  Relative activity(%) TKU015 nattokinase: 125%
TKU015 nattokinase [2]; placed ten days at 25 ° C.
  Relative activity(%) TKU015 nattokinase: 85%

## CCOCC [ethyl ether]
TKU015 nattokinase [1]
  Inhibition of TKU015 nattokinase activity: 50%
  Relative activity(%) TKU015 nattokinase: 43%
TKU015 nattokinase [2]; placed ten days at 4 ° C.
  Relative activity(%) TKU015 nattokinase: 98%
TKU015 nattokinase [2]; placed ten days at 25 ° C.
  Relative activity(%) TKU015 nattokinase: 70%
chitosanase; [10]
  Organic solvent resistance of chitosanase: can affect activity
chitinase; [9]
  Organic solvent resistance of chitinase: can affect activity

## Cc1ccccc1 [toluene]
TKU015 nattokinase [1]
  Effect of organic solvent on TKU015 nattokinase activity: do not affect
  Relative activity(%) TKU015 nattokinase: 106%
[4]
  Effect of solvent on PseA protease activity: doesn't change
TKU015 nattokinase [2]; placed ten days at 4 ° C.
  Relative activity(%) TKU015 nattokinase: 120%
TKU015 nattokinase [2]; placed ten days at 25 ° C.
  Relative activity(%) TKU015 nattokinase: 100%
chitosanase; [8]
  Organic solvent resistance of chitosanase: don't affect activity
chitinase; [8]
  Organic solvent resistance of chitinase: don't affect activity
PST-01 protease
  Effect of solvent on PST-01 protease activity: doesn't change

## Triton X-100
[4]; concentration 0.1% or 0.5%
  Effect on PseA protease activity: doesn't change
TKU015 nattokinase [5]; surfactant 0.5 % (v/v)
  Relative activity (%) Nattokinase: 160%
TKU015 nattokinase [5]; surfactant 1 % (v/v)
  Relative activity (%) Nattokinase: 206%
TKU015 nattokinase [5]; surfactant 2 % (v/v)
  Relative activity (%) Nattokinase: 344%

## [Mn+2] [Mn^2+]
TKU015 nattokinase [3]; [6]
  Relative activity (%) Nattokinase: 102%
chitosanase
  Effect of metal ions and PMSF on chitosanase activity: inhibited
chitinase
  Effect of metal ions on chitinase activity: inhibited; also recorded: prohibited

## CN(C)C=O [DMF, N,N-dimethylformamide]
TKU015 nattokinase [1]
  Relative activity(%) TKU015 nattokinase: 80% and 64%
[4]
  Effect of solvent on PseA protease activity: doesn't change
san-ai protease
  Effect of solvent on san-ai protease activity: doesn't change
TKU015 nattokinase [2]; placed ten days at 4 ° C.
  Relative activity(%) TKU015 nattokinase: 120%
TKU015 nattokinase [2]; placed ten days at 25 ° C.
  Relative activity(%) TKU015 nattokinase: 98%
chitosanase; [8]
  Organic solvent resistance of chitosanase: don't affect activity
chitinase; [8]
  Organic solvent resistance of chitinase: don't affect activity
PST-01 protease
  Effect of solvent on PST-01 protease activity: doesn't change

## [Fe+2] [Fe^2+]
TKU015 nattokinase [3]; [6]
  Relative activity (%) Nattokinase: 232%
TKU015 nattokinase [3]; [7]
  Relative activity (%) Nattokinase: 156%
TKU015 nattokinase [3]
  Effect on TKU015 nattokinase activity: improve activity; also recorded: increase its activity
chitinase
  Effect of metal ions on chitinase activity: inhibited; also recorded: prohibited

## CC(C)CCO [isoamylalcohol]
TKU015 nattokinase [1]
  Relative activity(%) TKU015 nattokinase: 60%
TKU015 nattokinase [2]; placed ten days at 4 ° C.
  Relative activity(%) TKU015 nattokinase: 88%
TKU015 nattokinase [2]; placed ten days at 25 ° C.
  Relative activity(%) TKU015 nattokinase: 100%

## CC(C)O [isopropylalcohol]
TKU015 nattokinase [1]
  Relative activity(%) TKU015 nattokinase: 68%
TKU015 nattokinase [2]; placed ten days at 4 ° C.
  Relative activity(%) TKU015 nattokinase: 115%
TKU015 nattokinase [2]; placed ten days at 25 ° C.
  Relative activity(%) TKU015 nattokinase: 120%

## C[S+](C)[O-] [DMSO]
TKU015 nattokinase [1]
  Relative activity(%) TKU015 nattokinase: 80%
TKU015 nattokinase [2]; placed ten days at 4 ° C.
  Relative activity(%) TKU015 nattokinase: 90%
TKU015 nattokinase [2]; placed ten days at 25 ° C.
  Relative activity(%) TKU015 nattokinase: 94%
